Reference: patent US20260285853A1, “COMPOUNDS AND METHODS FOR MODULATING SPLICING” (REMIX THERAPEUTICS INC., priority 2023, published 2026)

Experiments:
Assay in all cases: Gene panel canonical junction qPCR assay, decrease in CJ mRNA, Table 3
Format in all cases: cell-based
Conditions in all cases: decrease in canonical junction (CJ) mRNA, gene panel qPCR, Table 3
HTT mRNA = tested on: HTT mRNA
Method in brief: (§1)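 A673 (DMEM, 10% FBS, 15,000 cells/well) or K562 (IMDM, 10% FBS) cells treated 24 h at 37 °C with 11-point 3-fold dilutions, top 10 uM, DMSO ≤0.25%. Canonical exon-exon junction mRNA measured by RT-qPCR, normalized to GAPDH, GUSB or PPIA and DMSO (ΔΔCt); IC50 from 4-parameter logistic fit.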

MYB mRNA = tested on: MYB mRNA
Method in brief: as §1

SMN2 mRNA = tested on: SMN2 mRNA
Method in brief: as §1

`Cc1cn2cc(NC(=O)c3ccc(N4CCNCC4=O)c4cn(C)nc34)cc(F)c2n1` [Compound 251, N-(8-fluoro-2-methylimidazo[1,2-a]-pyridin-6-yl)-2-methyl-4-(2-oxopiperazin-1-yl)-2H-indazole-7-carboxamide 2,2,2-trifluoroacetate] was tested, and the IC50 (HTT mRNA) was > 10 µM, the IC50 (MYB mRNA) was > 10 µM and the IC50 (SMN2 mRNA) was 1 to 10 µM.
With `Cc1cn2cc(NC(=O)c3ccc(N4CCC(NC5CC5C)CC4)c4cn(C)nc34)cc(F)c2n1` (stereo not drawn) [Compound 204, N-(8-fluoro-2-methyl-imidazo[1,2-a]pyridin-6-yl)-2-methyl-4-[4-[(2-methyl-cyclopropyl)amino]-1-piperidyl] indazole-7-carboxamide] the IC50 (HTT mRNA) was 0.1 to 1 µM, the IC50 (MYB mRNA) was < 0.1 µM and the IC50 (SMN2 mRNA) was < 0.1 µM.
With `CCNC1CCN(c2ccc(C(=O)Nc3cc(F)c4nc(C)cn4c3)c3nn(C)nc23)CC1` [Compound 196, 7-[4-(ethylamino)piperidin-1-yl]-N-(8-fluoro-2-methyl-imidazo[1,2-a]pyridin-6-yl)-2-methyl-1,2,3-benzotriazole-4-carboxamide] the IC50 (HTT mRNA) was 0.1 to 1 µM, the IC50 (MYB mRNA) was 0.1 to 1 µM and the IC50 (SMN2 mRNA) was < 0.1 µM.
In the case of `CNC1(C)CCN(c2cc(F)c(C(=O)Nc3cc(F)c4nc(C)cn4c3)c3nn(C)cc23)CC1` [Compound 179, 6-fluoro-N-(8-fluoro-2-methyl-imidazo[1,2-a]pyridin-6-yl)-2-methyl-4-[4-methyl-4-(methylamino)-1-piperidyl]indazole-7-carboxamide], the IC50 (HTT mRNA) is reported as < 0.1 µM, the IC50 (MYB mRNA) is reported as < 0.1 µM and the IC50 (SMN2 mRNA) is reported as < 0.1 µM.
For `Cc1cn2nc(C(=O)Nc3ccc(N4C[C@@H](C)N[C@@H](C)C4)c4cc[nH]c34)cc(C)c2n1` [Compound 237, N-(4-[(3R,5S)-3,5-dimethylpiperazin-1-yl]-1H-indol-7-yl)-2,8-dimethylimidazo[1,2-b]pyridazine-6-carboxamide], the IC50 (HTT mRNA) was 1 to 10 µM, the IC50 (MYB mRNA) was 1 to 10 µM and the IC50 (SMN2 mRNA) was 1 to 10 µM.
With `CN[C@H]1CCN(c2ccc(C(=O)Nc3cc(F)c4nc(C)cn4c3)c3c2nnn3C)C1` [Compound 160, N-(8-fluoro-2-methyl-imidazo[1,2-a]pyridin-6-yl)-3-methyl-7-[(3S)-3-(methylamino)-pyrrolidin-1-yl]benzotriazole-4-carboxamide] the IC50 (HTT mRNA) was > 10 µM, the IC50 (MYB mRNA) was > 10 µM and the IC50 (SMN2 mRNA) was > 10 µM.
`CN[C@@H]1CCN(c2ccc(C(=O)Nc3cc(F)c4nc(C)cn4c3)c3nn(C)cc23)[C@H]1C` [Compound 155, N-(8-fluoro-2-methylimidazo-[1,2-a]pyridin-6-yl)-2-methyl-4-[(2S,3R)-2-methyl-3-(methylamino)-pyrrolidin-1-yl]indazole-7-carboxamide] was tested, and the IC50 (HTT mRNA) was > 10 µM, the IC50 (MYB mRNA) was 1 to 10 µM and the IC50 (SMN2 mRNA) was 1 to 10 µM.
With `CCNC1CCN(c2ccc(C(=O)Nc3cn4cc(C)nc(C)c4n3)c3nn(C)cc23)CC1` [Compound 181, N-(6,8-dimethylimidazo [1,2-a]pyrazin-2-yl)-4-[4-(ethylamino)-1-piperidyl]-2-methyl-indazole-7-carboxamide] the IC50 (HTT mRNA) was 0.1 to 1 µM, the IC50 (MYB mRNA) was 0.1 to 1 µM and the IC50 (SMN2 mRNA) was < 0.1 µM.
